This is an account of results in patent US20200061062A1, “INHIBITORS OF HUMAN PHOSPHATIDYLINOSITOL 3-KINASE DELTA” (ICOS Corporation, priority 2000, published 2020).

In series [1] the target is T1, PI3Kγ (Homo sapiens, UniProt P48736).
T1 construct: His tag (pFastbac HTb vector) (N); FLAG (N); made in house; host or cells: Sf21 insect cells (baculovirus)
The series can be described thus: Biochemical assay using 200 μM ATP, Gamma.

The target in series [2] is T2, PI3Kβ (Homo sapiens, UniProt P42338).
T2 construct: His tag (pFastbac HTa vector) (N); FLAG (N); made in house; host or cells: Sf21 insect cells (baculovirus)
In words: Biochemical assay of PI3K potency and selectivity using 20 μM ATP, Beta. Particulars: 20 μM ATP; for Beta/Delta Ratio: ratio of IC50 values, > = hypothetical ratio with 100 μM substituted for the missing IC50; for IC50: read-out: Beta IC50. An outline of the steps: (§1)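 Radioactive phosphate transfer from γ-[32P]ATP onto PIP2/PS liposomes was measured in 20 mM HEPES, pH 7.4, at 20 μM ATP. The 3× substrate stock contained […] and 6 μM PIP2/PS.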

Series [3] deals with T3, PI3Kδ (Homo sapiens, UniProt O00329, S253N). In words: Biochemical assay of PI3K potency and selectivity using 20 μM ATP, Delta. Further details: His tag (pFastbac HTb vector) (N); FLAG; made in house; host or cells: Sf21 insect cells (baculovirus). Particulars: 20 μM ATP; read-out: Delta IC50. Summed up: as §1
For series [4], the target named is T4, PI3Kα (Homo sapiens, UniProt P42336).
T4 construct: His tag (pFastbac HTb vector) (N); FLAG; made in house; host or cells: Sf21 insect cells (baculovirus)
The series can be described thus: Biochemical assay using 200 μM ATP, Alpha.
Method: (§2) PI3Kδ catalyzes a phosphotransfer from γ-[^32P]ATP to PIP2/PS liposomes at the D3′ position of the PIP2 lipid inositol ring. This reaction is MgCl2 dependent and is quenched in high molarity potassium phosphate buffer pH 8.0 containing 30 mM EDTA. […] The reaction products (and all unlabelled products) are transferred to a 96-well, prewetted PVDF filter plate, filtered, and washed in high molarity potassium phosphate. Scintillant is added to the dried wells and the incorporated radioactivity is quantitated.
(§3) This dilution established a final concentration of 200 μM ATP in the reaction volume. The reaction was stopped with 150 μL quench buffer (1.0 M potassium phosphate pH 8.0, 30 mM EDTA). A portion of the quenched solution (180 μL) was then transferred to a PVDF filter plate (Millipore # MAIP NOB prewetted with sequential 200 μL washes of 100% methanol, water, and finally 1.0 M potassium phosphate pH 8.0 wash buffer).
(§4) The PVDF filter plate was aspirated under moderate vacuum (2-5 mm Hg), washed with 5×200 μL of wash buffer, and then dried by aspiration. The filter was subsequently blotted, allowed to air dry completely, and inserted into a Wallac counting cassette with 50 μL of Ecoscint scintillation cocktail added per well.
(§5) Subsequent selectivity assays were done similarly using the same 3× substrate stocks except they contained 0.05 mCi/mL γ[^32P]ATP and 3 mM PIP2. Subsequent selectivity assays also used the same 3× enzyme stocks, except they now contained 3 nM of any given PI3K isoform.
(§6) For all selectivity assays, the test compounds were weighed out and dissolved into 10-50 mM stocks in 100% DMSO (depending on their respective solubilities) and stored at −20° C. […] From these dilutions, 20 μL was added into the assay wells alongside water blanks used for the enzyme (positive) control and the no enzyme (background) control.
(§7) This selectivity protocol is identical to that described above, except the 3× stock ATP concentration was 600 μM.

Series [5] has as its system Murine splenocytes (Balb/c). The series can be described thus: B cell proliferation in response to cell surface IgM stimulation. It is filed as cell-based. The following applies: Mus musculus, Splenocyte; stimulated B cell proliferation; read-out: Mouse BCR Stim (EC50). Summed up:
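Balb/c splenocytes (2×10^5/well, 10% FBS/RPMI) preincubated 30-60 min with inhibitor, then stimulated with goat F(ab′)2 anti-mouse IgM μ-chain at 25 μg/mL final. Cultured 3 days at 37° C., [^3H]-thymidine pulsed for final 4 h; incorporation counted as CPM. Values are EC50 (μM).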

The next series concerns human neutrophils. The series can be described thus: Elastase exocytosis from neutrophils (fMLP-induced). It is filed as cell-based. Particulars: neutrophil (PMN) elastase release. An outline of the steps:
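Human blood neutrophils (Ficoll-Hypaque) treated with compound or DMSO, then stimulated 90 min at 37 °C with 1 μM fMLP plus 0.01 mg/mL cytochalasin B, 1.0 μM NaN3 and 5 μg/mL L-methionine. Supernatant elastase read at 410 nm over 2 h on MeO-suc-AAPV-pNA, normalized to uninhibited; EC50 in μM.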

Series [6] deals with T4, PI3Kα. The series can be described thus: Biochemical assay of PI3K potency and selectivity using 20 μM ATP, Alpha. The following applies: for Alpha/Delta Ratio / IC50: 20 μM ATP; for Alpha/Delta Ratio: ratio of IC50 values, > = hypothetical ratio with 100 μM substituted for the missing IC50; for IC50: read-out: Alpha IC50; for remaining activity at 100 µM: read-out: percent activity remaining at 100 μM, 20 μM ATP, 100 μM compound did not inhibit by at least 50%. Summed up: as §1

The next series concerns T cell proliferation. The series can be described thus: Stimulated T cell proliferation (Mouse TCE Stim, Table 4). The following applies: stimulated T cell proliferation, read-out: Mouse TCE Stim (EC50). It is filed as cell-based.
For series [7], the target named is T3, PI3Kδ. In words: Biochemical assay using 200 μM ATP, Delta.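 Also: radiometric filter-binding assay: PI3Kδ transfers ³²P from γ-[³²P]ATP onto PIP2/PS liposomes, counted by scintillation, enzyme-only wells as positive control, no-enzyme wells as background.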
Method: as §2, §3, §4, §5, §6, §7
Series [8] addresses T2, PI3Kβ. The series can be described thus: Biochemical assay using 200 μM ATP, Beta.
Method: as §2, §3, §4, §5, §6, §7
Series [9] has as its target T1, PI3Kγ. The series can be described thus: Biochemical assay of PI3K potency and selectivity using 20 μM ATP, Gamma. The text has this:
Recombinant baculoviruses containing the above clones were generated using manufacturer's recommended protocol (Life Technologies). Baculoviruses expressing His-tagged p110α, p110γ, or p110δ catalytic subunit and p85 subunit were coinfected into Sf21 insect cells. To enrich the heterodimeric enzyme complex, an excess amount of baculovirus expressing p85 subunit was infected, and the His-tagged p110 catalytic subunit complexed with p85 was purified on nickel affinity column. […] In an alternate approach, p101 can be cloned into baculovirus, to permit coexpression with its preferred binding partner p110γ. […]

By EC50 is commonly meant the midpoint of the concentration-response curve. As a reminder, the remaining activity is the share of the control activity or signal that is left under treatment. For orientation: melting point means the temperature, or range, at which the solid turns liquid.

T1 sequence (P48736 whole entry): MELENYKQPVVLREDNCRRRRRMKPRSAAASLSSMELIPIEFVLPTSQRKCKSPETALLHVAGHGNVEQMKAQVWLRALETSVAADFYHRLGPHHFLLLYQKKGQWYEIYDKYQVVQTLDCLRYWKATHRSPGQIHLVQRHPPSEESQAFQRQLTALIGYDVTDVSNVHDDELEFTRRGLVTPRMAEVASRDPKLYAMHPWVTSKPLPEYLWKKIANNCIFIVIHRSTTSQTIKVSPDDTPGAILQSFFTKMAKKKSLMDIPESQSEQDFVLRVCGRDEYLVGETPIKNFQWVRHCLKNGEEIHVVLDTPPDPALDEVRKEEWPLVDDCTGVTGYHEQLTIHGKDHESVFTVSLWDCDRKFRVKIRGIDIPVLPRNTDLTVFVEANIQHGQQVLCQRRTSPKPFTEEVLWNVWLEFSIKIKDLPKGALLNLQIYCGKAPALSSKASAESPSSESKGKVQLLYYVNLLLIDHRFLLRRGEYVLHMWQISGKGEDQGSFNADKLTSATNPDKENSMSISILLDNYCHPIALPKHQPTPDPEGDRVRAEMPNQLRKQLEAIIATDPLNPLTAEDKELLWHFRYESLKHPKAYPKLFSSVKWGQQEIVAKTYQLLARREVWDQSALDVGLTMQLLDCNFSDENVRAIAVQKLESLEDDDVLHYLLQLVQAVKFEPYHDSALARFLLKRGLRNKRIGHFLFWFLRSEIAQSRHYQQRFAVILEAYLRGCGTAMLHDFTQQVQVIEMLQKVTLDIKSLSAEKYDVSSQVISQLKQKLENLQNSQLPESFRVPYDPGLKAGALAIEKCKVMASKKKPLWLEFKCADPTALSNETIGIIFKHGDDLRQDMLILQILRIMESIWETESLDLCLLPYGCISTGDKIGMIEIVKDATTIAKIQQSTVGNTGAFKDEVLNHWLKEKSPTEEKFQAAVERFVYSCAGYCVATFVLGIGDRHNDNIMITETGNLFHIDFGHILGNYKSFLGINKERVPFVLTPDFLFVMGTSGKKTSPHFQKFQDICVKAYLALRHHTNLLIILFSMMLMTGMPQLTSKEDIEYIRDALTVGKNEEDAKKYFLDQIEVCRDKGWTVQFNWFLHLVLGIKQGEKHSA
T2 sequence (P42338 whole entry): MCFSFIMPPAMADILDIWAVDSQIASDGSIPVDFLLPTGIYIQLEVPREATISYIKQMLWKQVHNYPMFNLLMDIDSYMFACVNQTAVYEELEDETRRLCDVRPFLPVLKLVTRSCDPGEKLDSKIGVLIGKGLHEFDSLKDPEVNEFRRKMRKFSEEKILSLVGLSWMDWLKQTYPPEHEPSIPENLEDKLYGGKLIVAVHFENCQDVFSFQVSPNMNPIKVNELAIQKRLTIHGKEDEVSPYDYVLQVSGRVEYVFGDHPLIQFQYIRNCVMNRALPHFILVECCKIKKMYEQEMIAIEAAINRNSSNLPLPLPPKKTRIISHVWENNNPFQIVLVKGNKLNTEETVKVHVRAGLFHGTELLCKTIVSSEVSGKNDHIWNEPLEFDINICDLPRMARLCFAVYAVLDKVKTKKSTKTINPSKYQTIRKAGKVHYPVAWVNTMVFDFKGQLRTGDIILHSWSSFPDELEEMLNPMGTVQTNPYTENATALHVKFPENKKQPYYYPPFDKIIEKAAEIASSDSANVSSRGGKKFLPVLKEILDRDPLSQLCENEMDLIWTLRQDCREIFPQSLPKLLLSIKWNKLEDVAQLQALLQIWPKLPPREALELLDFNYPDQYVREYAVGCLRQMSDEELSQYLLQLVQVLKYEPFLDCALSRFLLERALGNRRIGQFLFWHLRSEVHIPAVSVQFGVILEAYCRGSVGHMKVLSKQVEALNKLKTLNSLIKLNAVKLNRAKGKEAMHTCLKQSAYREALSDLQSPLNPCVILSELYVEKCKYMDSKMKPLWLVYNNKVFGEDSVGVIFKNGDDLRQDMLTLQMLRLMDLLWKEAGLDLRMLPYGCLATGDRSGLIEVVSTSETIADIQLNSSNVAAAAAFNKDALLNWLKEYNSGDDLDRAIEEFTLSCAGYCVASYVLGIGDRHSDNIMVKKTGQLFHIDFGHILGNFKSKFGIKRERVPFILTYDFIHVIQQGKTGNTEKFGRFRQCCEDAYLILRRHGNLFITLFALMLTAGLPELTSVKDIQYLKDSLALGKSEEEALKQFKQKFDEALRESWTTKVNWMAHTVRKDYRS
T2 sequence (P27986 whole entry partner): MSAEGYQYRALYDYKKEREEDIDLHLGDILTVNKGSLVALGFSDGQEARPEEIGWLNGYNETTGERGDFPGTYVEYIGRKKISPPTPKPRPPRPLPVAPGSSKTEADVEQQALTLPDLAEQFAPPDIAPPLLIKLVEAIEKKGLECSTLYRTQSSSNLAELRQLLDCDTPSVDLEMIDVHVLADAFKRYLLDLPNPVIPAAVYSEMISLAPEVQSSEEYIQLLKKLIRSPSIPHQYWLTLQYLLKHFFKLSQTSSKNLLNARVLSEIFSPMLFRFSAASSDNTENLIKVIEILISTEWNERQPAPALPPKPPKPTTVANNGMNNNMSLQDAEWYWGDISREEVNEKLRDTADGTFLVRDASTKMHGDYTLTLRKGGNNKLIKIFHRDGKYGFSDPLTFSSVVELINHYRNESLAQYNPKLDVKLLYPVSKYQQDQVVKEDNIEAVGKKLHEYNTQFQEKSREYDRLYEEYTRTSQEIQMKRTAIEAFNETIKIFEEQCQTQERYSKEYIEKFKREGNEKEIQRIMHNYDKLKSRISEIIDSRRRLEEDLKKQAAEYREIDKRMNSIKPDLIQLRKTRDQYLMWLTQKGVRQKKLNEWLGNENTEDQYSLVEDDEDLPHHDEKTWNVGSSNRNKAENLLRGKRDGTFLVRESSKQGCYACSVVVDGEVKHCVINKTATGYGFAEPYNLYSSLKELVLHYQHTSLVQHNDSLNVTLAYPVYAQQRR
T3 sequence (O00329 whole entry S253N): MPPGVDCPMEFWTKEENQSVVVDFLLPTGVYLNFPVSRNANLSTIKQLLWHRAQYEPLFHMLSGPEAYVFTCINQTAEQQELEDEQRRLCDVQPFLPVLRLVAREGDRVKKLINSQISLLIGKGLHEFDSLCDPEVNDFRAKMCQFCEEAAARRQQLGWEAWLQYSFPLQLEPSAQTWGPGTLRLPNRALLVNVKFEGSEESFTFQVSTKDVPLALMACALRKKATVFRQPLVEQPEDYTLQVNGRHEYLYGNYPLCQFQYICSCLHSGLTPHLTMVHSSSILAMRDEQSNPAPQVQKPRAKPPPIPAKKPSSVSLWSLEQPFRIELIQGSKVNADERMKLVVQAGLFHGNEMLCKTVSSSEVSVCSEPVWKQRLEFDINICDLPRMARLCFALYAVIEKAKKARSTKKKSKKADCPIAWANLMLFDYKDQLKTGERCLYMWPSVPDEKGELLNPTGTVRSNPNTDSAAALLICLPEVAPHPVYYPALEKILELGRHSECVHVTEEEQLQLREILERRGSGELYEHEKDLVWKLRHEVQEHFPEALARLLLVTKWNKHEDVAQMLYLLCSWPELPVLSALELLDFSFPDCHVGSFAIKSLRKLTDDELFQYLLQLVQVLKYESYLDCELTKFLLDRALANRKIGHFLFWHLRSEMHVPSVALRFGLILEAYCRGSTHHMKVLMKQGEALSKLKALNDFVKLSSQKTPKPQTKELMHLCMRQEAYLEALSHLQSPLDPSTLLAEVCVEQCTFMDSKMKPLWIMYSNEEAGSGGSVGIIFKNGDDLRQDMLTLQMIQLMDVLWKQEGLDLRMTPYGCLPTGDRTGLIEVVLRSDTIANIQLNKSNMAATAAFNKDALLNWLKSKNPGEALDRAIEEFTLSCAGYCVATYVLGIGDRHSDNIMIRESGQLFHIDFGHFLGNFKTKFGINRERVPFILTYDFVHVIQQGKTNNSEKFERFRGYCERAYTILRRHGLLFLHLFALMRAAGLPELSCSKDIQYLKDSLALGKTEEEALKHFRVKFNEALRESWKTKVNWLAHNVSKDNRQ
T3 sequence (P27986 whole entry partner): as the sequence (P27986 whole entry partner) above
T4 sequence (P42336 whole entry): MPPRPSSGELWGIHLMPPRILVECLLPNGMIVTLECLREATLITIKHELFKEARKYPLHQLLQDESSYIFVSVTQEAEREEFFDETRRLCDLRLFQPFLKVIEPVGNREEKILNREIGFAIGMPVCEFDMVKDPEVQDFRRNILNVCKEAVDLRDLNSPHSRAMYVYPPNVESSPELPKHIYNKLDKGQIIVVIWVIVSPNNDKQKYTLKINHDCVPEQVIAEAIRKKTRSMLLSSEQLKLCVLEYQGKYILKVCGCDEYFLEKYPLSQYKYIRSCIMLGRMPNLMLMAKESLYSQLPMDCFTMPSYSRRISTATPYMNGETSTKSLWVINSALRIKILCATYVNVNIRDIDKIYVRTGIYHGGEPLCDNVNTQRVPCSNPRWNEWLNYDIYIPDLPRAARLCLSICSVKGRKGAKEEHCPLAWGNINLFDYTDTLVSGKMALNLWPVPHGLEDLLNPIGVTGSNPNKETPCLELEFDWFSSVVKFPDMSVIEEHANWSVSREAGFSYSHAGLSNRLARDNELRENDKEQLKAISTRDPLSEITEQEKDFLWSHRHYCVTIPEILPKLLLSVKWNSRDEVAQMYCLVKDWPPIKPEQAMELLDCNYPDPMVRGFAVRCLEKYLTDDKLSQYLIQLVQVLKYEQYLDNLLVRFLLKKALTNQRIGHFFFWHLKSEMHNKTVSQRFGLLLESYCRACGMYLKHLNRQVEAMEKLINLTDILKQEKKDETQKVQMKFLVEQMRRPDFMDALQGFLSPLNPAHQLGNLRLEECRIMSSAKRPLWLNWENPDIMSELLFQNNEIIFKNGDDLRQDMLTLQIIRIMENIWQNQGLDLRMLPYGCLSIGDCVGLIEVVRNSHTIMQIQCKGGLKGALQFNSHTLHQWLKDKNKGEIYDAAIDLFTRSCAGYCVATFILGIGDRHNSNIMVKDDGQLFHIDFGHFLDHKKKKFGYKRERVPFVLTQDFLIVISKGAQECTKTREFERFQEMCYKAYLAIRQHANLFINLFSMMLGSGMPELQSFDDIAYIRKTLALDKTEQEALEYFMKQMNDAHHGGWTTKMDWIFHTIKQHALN
T4 sequence (P27986 whole entry partner): as the sequence (P27986 whole entry partner) above

With `Cc1cccc2nc(CSc3ncnc4[nH]cnc34)n(-c3ccccc3C(C)C)c(=O)c12` [Compound D-035, 3-(2-isopropylphenyl)-5-methyl-2-(9H-purin-6-ylsulfanylmethyl)-3H-quinazolin-4-one], the “Gamma/Delta Ratio” value on PI3Kγ [1] is given as 14. Also, the IC50 against PI3Kγ [1] was 6.8 ± 1 µM; at PI3Kβ [2], 3 µM; at PI3Kδ [3], 0.05 µM; on PI3Kα [4] it was 95 ± 6 µM; on PI3Kα [6], 9 µM; at PI3Kδ [7], 0.49 ± 0.1 µM. The compound also yielded an IC50 on PI3Kβ [8] of 34 ± 6 µM. The “Beta/Delta Ratio” value came out at 65 at PI3Kβ [2] and 69 at PI3Kβ [8]. For the same compound, the “Alpha/Delta Ratio” value came out at 193 at PI3Kα [4] and 199 at PI3Kα [6]. Moreover, the results for the concentration giving a half-maximal response (EC50) (in [5]; in the series on human neutrophils; with T cell proliferation) were 0.2 ± 0.1 µM, 0.3 ± 0.1 µM and 2.9 ± 0.7 µM, respectively.

For the compound `CCCCn1c(CSc2ncnc3[nH]cnc23)nc2ccccc2c1=O` [Compound D-038, 3-butyl-2-(9H-purin-6-ylsulfanylmethyl)-3H-quinazolin-4-one], the entries for the “Gamma/Delta Ratio” value at PI3Kγ [1] and at PI3Kγ [9] (ratio of IC50 values) were 31 and 100, respectively. Also, the IC50 is 55 µM on PI3Kγ [1], 0.6 µM on PI3Kδ [3], 1.8 µM at PI3Kδ [7] and 60 µM at PI3Kγ [9]. The entries for the “Beta/Delta Ratio” value on PI3Kβ [2] and on PI3Kβ [8] were >170 and 82, respectively. The remaining activity at 100 µM was determined as 63% at PI3Kβ [2] (read-out: Beta: percent activity remaining at 100 μM, 100 μM compound did not inhibit by at least 50%) and 77% on PI3Kα [6]. The results for the “Alpha/Delta Ratio” value at PI3Kα [4] and on PI3Kα [6] were 77 and >167, respectively. Besides, the half-maximal effective concentration (EC50) in [5] stood at 1.4 ± 0.1 µM; with human neutrophils, 5 µM; in the series with T cell proliferation, 2.9 µM.

`Cc1cccc2nc(Cn3cnc4c(N)ncnc43)n(-c3ccccc3Cl)c(=O)c12` [Compound D-007, 2-(6-Aminopurin-9-ylmethyl)-3-(2-chlorophenyl)-5-methyl-3H-quinazolin-4-one] gave a melting point of 190.7 to 190.9 °C. For the same compound, on PI3Kγ [1], the “Gamma/Delta Ratio” value is 121 and the IC50 amounted to 88 ± 4 µM. In addition, on PI3Kβ [2], the “Beta/Delta Ratio” value worked out at 188 and the IC50 was determined as 30 µM. On PI3Kδ [3], the IC50 worked out at 0.16 µM. For the same compound, the “Alpha/Delta Ratio” value on PI3Kα [4] is listed as 252. The EC50 in series [5] amounted to 0.3 ± 0.1 µM. For the same compound, in the series on human neutrophils, the EC50 turned out to be 0.4 µM. In addition, on PI3Kα [6], the “Alpha/Delta Ratio” value is >619 and the remaining activity at 100 µM worked out at 82%. Moreover, the EC50 in the series on T cell proliferation came to 4.2 µM. Further, the IC50 on PI3Kδ [7] is 0.73 ± 0.2 µM. For the same compound, at PI3Kβ [8], the “Beta/Delta Ratio” value is given as 99 and the IC50 came out at 72 ± 12 µM.

Turning to `Nc1ncnc2c1ncn2Cc1nc2cccc(F)c2c(=O)n1-c1ccccc1Cl` [Compound D-005, 2-(6-Aminopurin-9-ylmethyl)-3-(2-chlorophenyl)-5-fluoro-3H-quinazolin-4-one], the melting point is 159 to 172 °C (dec.). Besides, on PI3Kγ [1], the “Gamma/Delta Ratio” value turned out to be 17. Moreover, on PI3Kβ [2], the “Beta/Delta Ratio” value was found to be 56 and the IC50 came out at 46 µM. The IC50 at PI3Kδ [3] amounted to 0.8 µM. The “Alpha/Delta Ratio” value on PI3Kα [4] is on record as 20. Also, the concentration giving a half-maximal response (EC50) in [5] stood at 0.7 ± 0.1 µM. The compound also yielded a concentration for a half-maximal effect (EC50) with human neutrophils of 4.3 ± 1 µM. For the same compound, at PI3Kα [6], the “Alpha/Delta Ratio” value is reported as >121 and the remaining activity at 100 µM was 89%. Further, the EC50 in the series on T cell proliferation is 3.9 µM. The IC50 at PI3Kδ [7] is 11 µM. Moreover, at PI3Kβ [8], the “Beta/Delta Ratio” value is listed as 16.

`Cc1cccc2nc(Cn3cnc4c(N)ncnc43)n(-c3ccccc3F)c(=O)c12` [Compound D-048, 2-(6-aminopurin-9-ylmethyl)-3-(2-fluorophenyl)-5-methyl-3H-quinazolin-4-one]: the “Gamma/Delta Ratio” value at PI3Kγ [1] was found to be 91. Besides, the IC50 against PI3Kγ [1] was determined as 123 ± 40 µM; on PI3Kβ [2], 14 µM; on PI3Kδ [3] it was 0.16 µM; on PI3Kα [4], 90 ± 57 µM; at PI3Kα [6], 70 µM; against PI3Kδ [7], 1.4 ± 0.9 µM. For the same compound, the IC50 against PI3Kβ [8] is 95 ± 7 µM. Further, the “Beta/Delta Ratio” value at PI3Kβ [2] was determined as 90; at PI3Kβ [8] it was 70. Moreover, the entries for the “Alpha/Delta Ratio” value on PI3Kα [4] and on PI3Kα [6] were 67 and 449, respectively. Besides, the values for the concentration giving a half-maximal response (EC50) (in series [5]; with human neutrophils; in the series with T cell proliferation) were 0.4 ± 0.2 µM, 0.9 ± 0.2 µM and 5 µM, respectively.

Consider `Nc1ncnc2c1ncn2Cc1nc2cccc(Cl)c2c(=O)n1-c1ccccc1Cl` [Compound D-006, 2-(6-Aminopurin-o-ylmethyl)-5-chloro-3-(2-chlorophenyl)-3H-quinazolin-4-one], for which the melting point was 245.7 to 246 °C. Moreover, on PI3Kγ [1], the “Gamma/Delta Ratio” value is given as 95 and the IC50 came to 87 ± 33 µM. For the same compound, at PI3Kβ [2], the “Beta/Delta Ratio” value is reported as 38 and the IC50 was determined as 6 µM. For the same compound, the IC50 at PI3Kδ [3] turned out to be 0.15 µM. The “Alpha/Delta Ratio” value at PI3Kα [4] stood at 226. Further, the EC50 in [5] was found to be 0.2 ± 0.1 µM. Further, the response in the series with human neutrophils was half-maximal at 0.3 ± 0.1 µM (EC50). Also, at PI3Kα [6], the “Alpha/Delta Ratio” value is given as >652 and the remaining activity at 100 µM is 78%. The EC50 with T cell proliferation is 5.3 µM. Besides, the IC50 on PI3Kδ [7] amounted to 0.92 ± 0.1 µM. Moreover, on PI3Kβ [8], the “Beta/Delta Ratio” value is 48 and the IC50 amounted to 44 ± 5 µM.

For `O=c1c2ccc(F)cc2nc(CSc2ncnc3[nH]cnc23)n1-c1ccccc1Cl` [Compound D-022, 3-(2-Chlorophenyl)-7-fluoro-2-(9H-purin-6-ylsulfanylmethyl)-3H-quinazolin-4-one], the melting point fell in the range of 151.4 to 154.2 °C. The IC50 at PI3Kβ [2] amounted to 110 µM. Besides, the IC50 at PI3Kδ [3] was 0.8 µM. The EC50 in [5] turned out to be 1.8 µM. The half-maximal effective concentration (EC50) in the series on T cell proliferation stood at 2.3 µM. At PI3Kδ [7], this compound showed an IC50 of 4.2 µM. Further, the IC50 against PI3Kγ [9] is 40 µM.
